Literature values as cited in article PMC7070898 (Clinical and Translational Science, 2019).

Experiments:
[1] = test system: experimental autoimmune encephalomyelitis; conditions: B cell‐dependent and T cell‐dependent EAE mouse models ref 9, 10; cited from earlier work
[2] = test system: collagen‐induced arthritis; conditions: collagen‐induced arthritis mouse model ref 8; cited from earlier work
[3] = test system: B cell and basophil activation; conditions: human cellular assays ref 8; cited from earlier work

C=CC(=O)N1CCC(CNc2ncnc(N)c2-c2ccc(Oc3ccccc3)cc2)CC1 [evobrutinib]
central nervous system inflammation and disease severity [1]: limited central nervous system inflammation and disease severity
rheumatoid arthritis‐like symptoms [2]: rheumatoid arthritis‐like symptoms were inhibited
inhibition of B cell and basophil activation [3]: potently inhibits B cell and basophil activation
